We go through 10 compounds from patent US9499547B2 (BAYER INTELLECTUAL PROPERTY GMBH, priority 2011, dated 2016).

The target in this experiment is human full-length MKNK1 (Homo sapiens (Human), UniProt Q9BUB5, T344D). As to the kind of experiment: MKNK1 kinase assay (MKNK1 TR-FRET assay). The conditions noted are these: 10 μM ATP final conc.; 15 min preincubation with enzyme. Type of experiment: biochemical. The method, then: MKNK1-inhibitory activity of compounds of the present invention was quantified employing the MKNK1 TR-FRET assay as described in the following paragraphs.
As substrate for the kinase reaction the biotinylated peptide biotin-Ahx-[…] (C-terminus in amide form) was used which can be purchased e.g. form the company Biosyntan (Berlin-Buch, Germany).
For the assay 50 nL of a 100 fold concentrated solution of the test compound in DMSO was pipetted into a black low volume 384 well microtiter plate (Greiner Bio-One, Frickenhausen, Germany), 2 μL of a solution of MKNK1 in aqueous assay buffer [50 mM HEPES pH 7.5, 5 mM magnesium chloride, 1.0 mM dithiothreitol, 0.005% (v/v) Nonidet-P40 (Sigma)] was added and the mixture was incubated for 15 min at 22° C. to allow pre-binding of the test compounds to the enzyme before the start of the kinase reaction. Then the kinase reaction was started by the addition of 3 μL of a solution of adenosine-tri-phosphate (ATP, 16.7 μM=>final conc. in the 5 μL assay volume is 10 μM) and substrate (0.1 μM=>final conc. in the 5 μL assay volume is 0.06 μM) in assay buffer and the resulting mixture was incubated for a reaction time of 45 min at 22° C. The concentration of MKNK1 was adjusted depending of the activity of the enzyme lot and was chosen appropriate to have the assay in the linear range, typical concentrations were in the range of 0.05 μg/ml. The reaction was stopped by the addition of 5 μL of a solution of TR-FRET detection reagents (5 nM streptavidine-XL665 [Cisbio Bioassays, Codolet, France] and 1 nM anti-ribosomal protein S6 (pSer236)-antibody from Invitrogen [#44921G] and 1 nM LANCE EU-W1024 labeled ProteinG [Perkin-Elmer, product no. AD0071]) in an aqueous EDTA-solution (100 mM EDTA, 0.1% (w/v) bovine serum albumin in 50 mM HEPES pH 7.5).
The resulting mixture was incubated for 1 h at 22° C. to allow the formation of complex between the phosphorylated biotinylated peptide and the detection reagents. Subsequently the amount of phosphorylated substrate was evaluated by measurement of the resonance energy transfer from the Eu-chelate to the streptavidine-XL. Therefore, the fluorescence emissions at 620 nm and 665 nm after excitation at 350 nm were measured in a TR-FRET reader, e.g. a Rubystar (BMG Labtechnologies, Offenburg, Germany) or a Viewlux (Perkin-Elmer). The ratio of the emissions at 665 nm and at […] was taken as the measure for the amount of phosphorylated substrate. The data were normalised (enzyme reaction without inhibitor=0% inhibition, all other assay components but no enzyme=100% inhibition).

Sequence of human full-length MKNK1 (Q9BUB5 other isoform, or with tags, fused parts or gaps T344D): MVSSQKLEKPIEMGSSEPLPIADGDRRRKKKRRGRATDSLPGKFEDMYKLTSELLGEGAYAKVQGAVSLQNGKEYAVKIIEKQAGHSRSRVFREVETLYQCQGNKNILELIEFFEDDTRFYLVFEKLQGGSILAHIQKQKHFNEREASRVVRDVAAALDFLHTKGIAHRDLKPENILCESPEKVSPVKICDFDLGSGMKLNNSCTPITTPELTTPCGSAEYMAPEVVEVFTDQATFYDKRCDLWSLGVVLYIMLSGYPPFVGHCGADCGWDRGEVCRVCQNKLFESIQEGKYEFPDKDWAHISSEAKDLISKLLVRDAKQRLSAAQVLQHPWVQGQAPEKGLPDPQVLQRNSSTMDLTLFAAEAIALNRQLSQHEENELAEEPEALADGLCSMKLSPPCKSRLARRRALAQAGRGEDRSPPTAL

`NC[C@H](Oc1ccc2ncc(-c3cc4ccccc4o3)n2n1)c1cccnc1` [Example 55, (2R)-2-{[3-(1-benzofuran-2-yl)imidazo[1,2-b]pyridazin-6-yl]oxy}-2-(pyridin-3-yl)ethanamine] displayed an IC50 of 16 nM. Turning to `NCC(Oc1ccc2ncc(-c3cc4ccccc4o3)n2n1)c1ccc(F)cc1` (stereo not shown) [Example 56, 2-{[3-(1-benzofuran-2-yl)-imidazo-[1,2-b]-pyridazin-6-yl]oxy}-2-(4-fluoro-phenyl)-ethanamine], the half-inhibitory concentration (IC50) amounted to 40 nM. This IC50 is about 2.5-fold higher than that of the compound before.

On to `NCC(Oc1ccc2ncc(-c3cc4ccccc4o3)n2n1)c1ccccn1` (stereo not shown) [Example 57, 2-{[3-(1-benzofuran-2-yl)-imidazo-[1,2-b]-pyridazin-6-yl]oxy}-2-(pyridin-2-yl)-ethanamine], for which the half-maximal inhibitory concentration (IC50) worked out at 94 nM.

In the case of `CC(C)Oc1cccc(C(CN)Oc2ccc3ncc(-c4cc5ccccc5o4)n3n2)c1` (stereo not shown) [Example 58, 2-{[3-(1-benzofuran-2-yl)-imidazo-[1,2-b]-pyridazin-6-yl]oxy}-2-(3-iso-propoxy-phenyl)-ethanamine], the 50% inhibitory concentration (IC50) amounted to 20 nM. `NCC(Oc1ccc2ncc(-c3cc4ccccc4o3)n2n1)c1cccc(C(F)(F)F)c1` (stereo not shown) [Example 59, 2-{[3-(1-benzofuran-2-yl)-imidazo-[1,2-b]-pyridazin-6-yl]oxy}-2-[3-(tri-fluoro-methyl)-phenyl]-ethanamine] came in with an IC50 of 37 nM. Compound `NCC(Oc1ccc2ncc(-c3cc4ccccc4o3)n2n1)c1ccc(F)cc1F` (stereo not shown) [Example 60, 2-{[3-(1-benzofuran-2-yl)-imidazo-[1,2-b]-pyridazin-6-yl]oxy}-2-(2,4-di-fluoro-phenyl)-ethanamine] came in with an IC50 of 39 nM. The IC50 values of the last two compounds are within 1.5-fold of each other.

The compound `N[C@H](COc1ccc2ncc(-c3cc4ccccc4o3)n2n1)c1ccc(F)cc1` [Example 61, (1S)-2-{[3-(1-benzofuran-2-yl)imidazo[1,2-b]pyridazin-6-yl]oxy}-1-(4-fluorophenyl)ethanamine] showed a half-maximal inhibitory concentration (IC50) of 29 nM. Next, `N[C@H](COc1ccc2ncc(-c3cc4ccccc4o3)n2n1)c1ccc(Cl)cc1` [Example 62, (1S)-2-{[3-(1-benzofuran-2-yl)imidazo[1,2-b]pyridazin-6-yl]oxy}-1-(4-chlorophenyl)ethanamine]: 31 nM; `NC(COc1ccc2ncc(-c3cc4ccccc4o3)n2n1)c1cccnc1` (stereo not shown) [Example 63, 2-{[3-(1-benzofuran-2-yl)imidazo[1,2-b]pyridazin-6-yl]oxy}-1-(pyridin-3-yl)ethanamine]: 54 nM. For `NCCC(Oc1ccc2ncc(-c3cc4ccccc4o3)n2n1)c1ccc(F)cc1` (stereo not shown) [Example 64] the value was 57 nM.

As usually defined, the IC50 is the midpoint of a concentration-inhibition curve.
